From patent publication US20170320870A1 (Medical Research Council Technology, priority 2009, published 2017) come the findings set out here.

This test addresses T1, LRRK2 wild type (recombinant human, catalytic domain amino acids 970-2527, GST-tagged) (Homo sapiens, UniProt Q5S007).
T1 construct: The wild type used was recombinant human, catalytic domain (amino acids 970-2527) GST-tagged, expressed in insect cells; GST; purchased Invitrogen Corporation PV4873; host or cells: insect cells
Description: LRRK2 wild type protein kinase assay ([γ-33P] ATP, peptide substrate […]), IC50. It counts as biochemical. The settings on record: LRRK2 (variant not given); read-out: Potency score, LRRK2 IC50. In short, it runs like this: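 Insect-cell-expressed enzyme (~5 nM), no activation, incubated 180 min at ~21 °C in 50 mM Tris-HCl pH 7.5, 0.1 mM EGTA, 1 mM DTT, 10 mM MgCl2 with 100 μM peptide substrate and [γ-33P]ATP. Reaction stopped with orthophosphoric acid, captured on P81 filters and counted; IC50 from 10 concentrations in duplicate.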

The structures appear in SMILES notation.

T1 sequence (Q5S007 970-2527): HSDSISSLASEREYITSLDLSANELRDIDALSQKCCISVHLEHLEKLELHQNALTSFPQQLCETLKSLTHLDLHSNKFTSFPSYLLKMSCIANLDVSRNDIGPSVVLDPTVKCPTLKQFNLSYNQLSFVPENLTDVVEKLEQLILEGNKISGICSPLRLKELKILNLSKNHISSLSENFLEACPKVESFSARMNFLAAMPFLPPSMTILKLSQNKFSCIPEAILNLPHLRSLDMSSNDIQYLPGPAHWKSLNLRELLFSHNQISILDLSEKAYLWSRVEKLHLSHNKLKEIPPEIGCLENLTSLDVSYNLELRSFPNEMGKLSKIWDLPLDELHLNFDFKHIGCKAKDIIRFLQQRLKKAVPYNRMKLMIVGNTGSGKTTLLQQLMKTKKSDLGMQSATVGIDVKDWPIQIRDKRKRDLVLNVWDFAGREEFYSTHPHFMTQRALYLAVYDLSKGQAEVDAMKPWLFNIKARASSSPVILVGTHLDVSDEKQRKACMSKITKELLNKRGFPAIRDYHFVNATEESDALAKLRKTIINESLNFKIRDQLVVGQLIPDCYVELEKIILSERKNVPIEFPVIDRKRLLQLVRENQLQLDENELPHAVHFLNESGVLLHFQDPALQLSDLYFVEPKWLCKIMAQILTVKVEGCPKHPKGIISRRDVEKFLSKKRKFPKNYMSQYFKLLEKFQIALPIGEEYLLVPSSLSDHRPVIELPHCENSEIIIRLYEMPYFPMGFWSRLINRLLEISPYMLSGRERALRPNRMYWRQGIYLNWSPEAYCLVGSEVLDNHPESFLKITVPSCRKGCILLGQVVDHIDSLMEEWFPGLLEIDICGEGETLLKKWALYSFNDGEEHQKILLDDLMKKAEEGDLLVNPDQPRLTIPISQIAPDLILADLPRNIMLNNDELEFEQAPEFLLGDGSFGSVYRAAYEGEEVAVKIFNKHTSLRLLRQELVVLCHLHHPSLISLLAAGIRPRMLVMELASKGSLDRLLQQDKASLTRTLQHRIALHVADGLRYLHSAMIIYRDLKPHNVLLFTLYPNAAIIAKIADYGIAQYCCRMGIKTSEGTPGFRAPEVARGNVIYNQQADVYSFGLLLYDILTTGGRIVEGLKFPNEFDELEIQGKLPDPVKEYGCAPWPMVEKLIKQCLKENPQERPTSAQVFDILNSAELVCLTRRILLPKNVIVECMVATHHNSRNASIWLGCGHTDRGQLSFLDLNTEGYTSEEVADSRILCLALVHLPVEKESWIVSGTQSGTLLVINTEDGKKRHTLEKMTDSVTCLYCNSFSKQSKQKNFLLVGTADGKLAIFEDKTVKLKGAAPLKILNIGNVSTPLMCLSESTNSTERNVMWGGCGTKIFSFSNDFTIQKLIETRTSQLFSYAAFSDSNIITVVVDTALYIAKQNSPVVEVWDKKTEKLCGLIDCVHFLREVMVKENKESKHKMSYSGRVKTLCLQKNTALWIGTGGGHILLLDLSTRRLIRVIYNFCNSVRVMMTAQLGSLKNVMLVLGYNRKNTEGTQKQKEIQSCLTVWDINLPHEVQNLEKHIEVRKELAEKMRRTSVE

One may read the IC50 as the concentration needed to halve the response being measured. On to `Cn1cc(-c2n[nH]c3ccnc(NC4CCCCC4)c23)cn1` [Example 162, Cyclohexyl-[3-(1-methyl-1H-pyrazolo-4-yl)-1H-pyrazolo[4,3-c]pyridin-4-yl]-amine], for which the concentration for half-maximal inhibition (IC50) fell in the range of 100 to 1000 nM. As to `Cc1n[nH]c2ccnc(N3CCOCC3)c12` [Example 10, 3-Methyl-4-morpholin-4-yl-1H-pyrazolo[4,3-c]pyridine], the concentration for half-maximal inhibition (IC50) lay in the range of 1000 to 10000 nM. As for `Cc1cccc(-c2n[nH]c3ccnc(NC4CCCCC4)c23)c1` [Example 149, Cyclohexyl-(3-m-tolyl-1H-pyrazolo[4,3-c]pyridin-4-yl)-amine], the figure is 100 to 1000 nM; as for `Cc1n[nH]c2ccnc(Nc3ccccn3)c12` [Example 94, (3-Methyl-1H-pyrazolo[4,3-c]pyridin-4-yl)-pyridin-2-yl-amine], 1000 to 10000 nM; as for `Cc1n[nH]c2ccnc(Nc3ccc(F)c(Cl)c3)c12` [Example 307, (3-Chloro-4-fluoro-phenyl)-(3-methyl-1H-pyrazolo[4,3-c]pyridin-4-yl)-amine], 100 to 1000 nM.

As to `O=C(CCc1n[nH]c2ccnc(NC3CCCCC3)c12)N1CCC[C@@H](c2ccccc2)C1` [Example 190, 3-(4-Cyclohexylamino-1H-pyrazolo[4,3-c]pyridin-3-yl)-1-((S)-3-phenyl-piperidin-1-yl)-propan-1-one], the half-inhibitory concentration (IC50) lay in the range of 100 to 1000 nM. As for `N#Cc1cccc(-c2n[nH]c3ccnc(NC4CCCCC4)c23)c1` [Example 150, 3-(4-Cyclohexylamino-1H-pyrazolo[4,3-c]pyridin-3-yl)-benzonitrile], the figure is 100 to 1000 nM; as for `COc1ccc(-c2n[nH]c3ccnc(NC4CCCCC4)c23)cc1` [Example 141, Cyclohexyl-[3-(4-methoxy-phenyl)-1H-pyrazolo[4,3-c]pyridin-4-yl]-amine], 100 to 1000 nM; as for `Cc1n[nH]c2ccnc(NCc3cccc(F)c3)c12` [Example 317, (3-Fluoro-benzyl)-(3-methyl-1H-pyrazolo[4,3-c]pyridin-4-yl)-amine], 1000 to 10000 nM.

On to `Cc1n[nH]c2ccnc(NCCc3cccc(Cl)c3)c12` [Example 331, [2-(3-Chloro-phenyl)-ethyl]-(3-methyl-1H-pyrazolo[4,3-c]pyridin-4-yl)-amine], for which the IC50 lay within 100 to 1000 nM. Turning to `COc1ccc(CNc2nccc3[nH]nc(C)c23)c(OC)c1` [Example 97, (2,4-Dimethoxy-benzyl)-(3-methyl-1H-pyrazolo[4,3-c]pyridin-4-yl)-amine], the IC50 is 1000 to 10000 nM.

For `CC(=O)Nc1ccc(Nc2nccc3[nH]nc(C)c23)cc1` [Example 79, N-[4-(3-Methyl-1H-pyrazolo[4,3-c]pyridin-4-ylamino)-phenyl]-acetamide], the IC50 was 100 to 1000 nM.

As for `Cc1n[nH]c2ccnc(Oc3cccc(F)c3)c12` [Example 117, 4-(3-Fluoro-phenoxy)-3-methyl-1H-pyrazolo [4,3-c]pyridine], the IC50 lay in the range of 100 to 1000 nM. As for `Cc1n[nH]c2ccnc(OCc3ccccc3)c12` [Example 290, 4-Benzyloxy-3-methyl-1H-pyrazolo[4,3-c]pyridine], the figure is 100 to 1000 nM; as for `Cc1n[nH]c2ccnc(N[C@H](C)c3ccccc3)c12` [Example 19, (3-Methyl-1H-pyrazolo[4,3-c]pyridin-4-yl)-((R)-1-phenyl-ethyl)-amine], 1000 to 10000 nM. Consider `CCCNc1nccc2[nH]nc(C)c12` [Example 16, (3-Methyl-1H-pyrazolo[4,3-c]pyridin-4-yl)-propyl-amine], for which the IC50 lay in the range of 100 to 1000 nM. As for `Fc1cc(C(F)(F)F)ccc1-c1n[nH]c2ccnc(NC3CCCCC3)c12` [Example 166, Cyclohexyl-[3-(2-fluoro-4-trifluoromethyl-phenyl)-1H-pyrazolo[4,3-c]pyridin-4-yl]-amine], the IC50 is 1000 to 10000 nM. Take `O=C(Nc1ccc(CCc2n[nH]c3ccnc(NC4CCCCC4)c23)cc1)c1cccc(F)c1` [Example 275, N-{4-[2-(4-Cyclohexylamino-1H-pyrazolo[4,3-c]pyridin-3-yl)-ethyl]-phenyl}-3-fluoro-benzamide]: the 50% inhibitory concentration (IC50) is less than 100 nM. In the case of `Cc1n[nH]c2ccnc(NCCc3ccccn3)c12` [Example 2, (3-Methyl-1H-pyrazolo[4,3-c]pyridin-4-yl)-(2-pyridin-2-yl-ethyl)-amine] it was 1000 to 10000 nM; in that of `Cc1n[nH]c2ccnc(N(C)C3CCCCC3)c12` [Example 35, Cyclohexyl-methyl-(3-methyl-1H-pyrazolo[4,3-c]pyridin-4-yl)-amine], 1000 to 10000 nM. For `c1cc2[nH]nc(C3CC3)c2c(NC2CCCCC2)n1` [Example 138, Cyclohexyl-(3-cyclopropyl-1H-pyrazolo[4,3-c]pyridin-4-yl)-amine], the IC50 was in the range of 100 to 1000 nM. As for `N#CCc1ccc(-c2n[nH]c3ccnc(NC4CCCCC4)c23)cc1` [Example 156, [4-(4-Cyclohexylamino-1H-pyrazolo[4,3-c]pyridin-3-yl)-phenyl]-acetonitrile], the figure is 100 to 1000 nM. As for `CCN(CC)CCNc1nccc2[nH]nc(C)c12` [Example 14, N,N-diethyl-N′-(3-methyl-1H-pyrazolo[4,3-c]pyridin-4-yl)-ethane-1,2-diamine], the figure is 1000 to 10000 nM; as for `OCCCc1n[nH]c2ccnc(NC3CCCCC3)c12` [Example 231, 3-(4-Cyclohexylamino-1H-pyrazolo[4,3-c]pyridin-3-yl)-propan-1-ol], 1000 to 10000 nM. Take `Cc1n[nH]c2ccnc(O[C@@H](C)C(C)C)c12` [Example 292, 4-((S)-1,2-Dimethyl-propoxy)-3-methyl-1H-pyrazolo [4,3-c]pyridine]: the IC50 was in the range of 100 to 1000 nM. For the compound `Cc1n[nH]c2ccnc(OCCC(F)(F)F)c12` [Example 295, 3-Methyl-4-(3,3,3-trifluoro-propoxy)-1H-pyrazolo[4,3-c]pyridine], the concentration for half-maximal inhibition (IC50) was in the range of 100 to 1000 nM. Consider `c1cc(CCc2n[nH]c3ccnc(NC4CCCCC4)c23)ccn1` [Example 218, Cyclohexyl-[3-(2-pyridin-4-yl-ethyl)-1H-pyrazolo[4,3-c]pyridin-4-yl]-amine], for which the half-inhibitory concentration (IC50) is 100 to 1000 nM. Regarding `Cc1ccc(-c2n[nH]c3ccnc(NC4CCCCC4)c23)cc1` [Example 148, Cyclohexyl-(3-p-tolyl-1H-pyrazolo[4,3-c]pyridin-4-yl)-amine], the IC50 was in the range of 100 to 1000 nM. On to `Cc1n[nH]c2ccnc(OCC(C)C)c12` [Example 280, 4-Isobutoxy-3-methyl-1H-pyrazolo[4,3-c]pyridine], for which the IC50 was less than 100 nM. Turning to `O=C(CCc1n[nH]c2ccnc(NC3CCCCC3)c12)N1CCCC(Oc2cccnc2)C1` (centres unmarked) [Example 195, 3-(4-Cyclohexylamino-1H-pyrazolo[4,3-c]pyridin-3-yl)-1-[3-(pyridin-3-yloxy)-piperidin-1-yl]-propan-1-one], the IC50 was in the range of 100 to 1000 nM. As to `COc1nccc2[nH]nc(CCC(=O)N3CCC[C@H](c4ccccc4)C3)c12` [Example 260, 3-(4-Methoxy-1H-pyrazolo[4,3-c]pyridin-3-yl)-1-((R)-3-phenyl-piperidin-1-yl)-propan-1-one], the IC50 lay within 100 to 1000 nM. As for `Cc1ccccc1Nc1nccc2[nH]nc(C)c12` [Example 320, (2-Methyl-phenyl)-(3-methyl-1H-pyrazolo[4,3-c]pyridin-4-yl)-amine], the figure is 100 to 1000 nM; as for `Cc1n[nH]c2ccnc(NCc3cccc(Cl)c3)c12` [Example 314, (3-Chloro-benzyl)-(3-methyl-1H-pyrazolo[4,3-c]pyridin-4-yl)-amine], 1000 to 10000 nM. In the case of `Cc1n[nH]c2ccnc(NCCc3ccc(Cl)cc3)c12` [Example 329, [2-(4-Chloro-phenyl)-ethyl]-(3-methyl-1H-pyrazolo[4,3-c]pyridin-4-yl)-amine] it was 100 to 1000 nM; in that of `c1cc2[nH]nc(N3CCCC3)c2c(OC2CCCCC2)n1` [Example 237, 4-Cyclohexyloxy-3-pyrrolidin-1-yl-1H-pyrazolo[4,3-c]pyridine], 100 to 1000 nM.

In the case of `Cc1n[nH]c2ccnc(C3CCCC3)c12` [Example 127, 4-Cyclopentyl-3-methyl-1H-pyrazolo[4,3-c]pyridine], the IC50 lay in the range of 100 to 1000 nM. For the compound `Cc1n[nH]c2ccnc(Nc3ccc(C(=O)N(C)C4CCCCC4)cc3)c12` [Example 107, N-Cyclohexyl-N-methyl-4-(3-methyl-1H-pyrazolo [4,3-c]pyridin-4-ylamino)-benzamide], the IC50 was in the range of 1000 to 10000 nM. Turning to `COC1CCCN(C(=O)CCc2n[nH]c3ccnc(NC4CCCCC4)c23)C1` (centres unmarked) [Example 196, 3-(4-Cyclohexylamino-1H-pyrazolo[4,3-c]pyridin-3-yl)-1-(3-methoxy-piperidin-1-yl)-propan-1-one], the IC50 is 100 to 1000 nM. For the compound `Cc1n[nH]c2ccnc(NCCc3ccccc3F)c12` [Example 332, [2-(2-Fluoro-phenyl)-ethyl]-(3-methyl-1H-pyrazolo[4,3-c]pyridin-4-yl)-amine], the half-maximal inhibitory concentration (IC50) lay in the range of 100 to 1000 nM. For the compound `Cc1n[nH]c2ccnc(Nc3ccccc3)c12` [Example 70, (3-Methyl-1H-pyrazolo[4,3-c]pyridin-4-yl)-phenyl-amine], the IC50 is 100 to 1000 nM. In the case of `O=C(Nc1ccc(CCc2n[nH]c3ccnc(NC4CCCCC4)c23)cc1)c1ccncc1` [Example 267, N-{4-[2-(4-Cyclohexylamino-1H-pyrazolo[4,3-c]pyridin-3-yl)-ethyl]-phenyl}-isonicotinamide] it was less than 100 nM; in that of `CNC(=O)c1ccc(-c2n[nH]c3ccnc(NC4CCCCC4)c23)cc1` [Example 139, 4-(4-Cyclohexylamino-1H-pyrazolo[4,3-c]pyridin-3-yl)-N-methyl-benzamide], 1000 to 10000 nM. In the case of `Cc1n[nH]c2ccnc(NCc3ccccn3)c12` [Example 312, (3-Methyl-1H-pyrazolo[4,3-c]pyridin-4-yl)-pyridin-2-ylmethyl-amine], the half-inhibitory concentration (IC50) fell in the range of 1000 to 10000 nM. Regarding `Cc1n[nH]c2ccnc(-c3ccccc3)c12` [Example 56, 3-Methyl-4-phenyl-1H-pyrazolo[4,3-c] pyridine], the IC50 was 1000 to 10000 nM.
